# Test results published in patent publication US20170145363A1, “MICROFLUIDIC DUAL-WELL DEVICE FOR HIGHTHROUGHPUT SINGLE-CELL CAPTURE AND CULTURE” (NATIONAL HEALTH RESEARCH INSTITUTES, priority 2015, published 2017).
# System: A549 cells
# Assay: EGF promoted colony formation assay of A549 single cells in DW device
# Type: cell-based, human
# Conditions: 200 ng mL-1 EGF in DMEM with 10% FBS, 7 days of culture, colonies >15 cells per culture-well, control medium 12.10%
# Experimental: In the EGF promoted colony formation assay, 200 μL of A549 cells at a concentration of 2.2-2.5×10^6 cells per mL was injected into the DW device manually and allowed to settle for 2 min, followed by injecting DMEM with 20% FBS and 1% antibiotics into the microchannel immediately to wash off excess cells in the channel at a flow rate of 600 μL min^−1 for 30 s. Subsequently, the inlet and outlet holes were sealed and the device was flipped upside down to obtain a single cell in a culture-well. The device was then placed in a humidified incubator at 37° C. with 5% CO2 as described above. After 1 day of culture, one of the device (for the control experiment) was injected with 300 μL of DMEM containing 10% FBS and 1% antibiotics to replace the original medium. […] Colonies with cell numbers higher than 15 cells in a culture-well were scored as cell colonies.
# Due to its high single-cell capture efficiency and large space of culture wells, the DW device represents an attractive tool for in vitro single-cell colony formation assays in which the growth of individual cells is analyzed. […] The portability and transparency of the DW device allowed the cells in the device to be conveniently analyzed with a conventional microscope during cell culture experiments (FIGS. 7A-D). […]
substance,measurement,value
"EGF: epithelial growth factor (EGF, PeproTech, USA) supplied in the culture medium at 200 ng mL-1",colony forming efficiency,17.56%
